Test results reported in ChEMBL document CHEMBL5465560, “Selectivity Literature for EUbOPEN Chemogenomic Library” (2024).

Tests used:
[1] = biological target: Protein arginine N-methyltransferase 8 (Homo sapiens, UniProt Q9NR22); assay: Selectivity interaction (Scintillation proximity assays) EUB0000255b PRMT8
[2] = biological target: T1, Tyrosine-protein kinase receptor TYRO3 (Homo sapiens) (UniProt Q06418); assay: Selectivity interaction (Kinase panel (Invitrogen)) EUB0000639a TYRO3; conditions: at 200 nM
T1 sequence (whole entry): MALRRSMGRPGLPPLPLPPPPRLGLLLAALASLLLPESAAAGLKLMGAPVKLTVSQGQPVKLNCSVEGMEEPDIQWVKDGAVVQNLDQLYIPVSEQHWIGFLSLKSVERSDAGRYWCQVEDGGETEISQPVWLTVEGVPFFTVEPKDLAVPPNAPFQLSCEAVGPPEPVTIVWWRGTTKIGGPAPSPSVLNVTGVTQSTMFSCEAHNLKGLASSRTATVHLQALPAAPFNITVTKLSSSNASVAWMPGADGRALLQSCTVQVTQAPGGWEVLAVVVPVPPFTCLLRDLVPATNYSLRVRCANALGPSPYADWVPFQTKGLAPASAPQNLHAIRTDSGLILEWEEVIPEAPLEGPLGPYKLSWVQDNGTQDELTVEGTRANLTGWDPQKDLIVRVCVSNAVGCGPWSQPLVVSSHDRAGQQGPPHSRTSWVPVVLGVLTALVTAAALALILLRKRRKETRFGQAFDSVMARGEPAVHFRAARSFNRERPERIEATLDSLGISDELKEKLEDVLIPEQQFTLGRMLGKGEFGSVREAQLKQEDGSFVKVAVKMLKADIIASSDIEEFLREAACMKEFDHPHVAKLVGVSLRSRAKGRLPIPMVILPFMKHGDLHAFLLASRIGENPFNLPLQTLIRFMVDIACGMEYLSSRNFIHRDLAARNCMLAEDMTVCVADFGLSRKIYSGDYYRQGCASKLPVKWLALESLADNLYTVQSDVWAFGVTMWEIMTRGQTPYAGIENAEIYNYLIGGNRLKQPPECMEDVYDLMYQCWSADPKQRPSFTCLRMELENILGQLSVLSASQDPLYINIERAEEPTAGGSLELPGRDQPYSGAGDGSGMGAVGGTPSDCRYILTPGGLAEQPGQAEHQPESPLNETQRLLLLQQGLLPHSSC

[3] = biological target: Cyclin-dependent kinase 3 (Homo sapiens) (UniProt Q00526); assay: Selectivity interaction (KinomeScan (DiscoverX)) EUB0001049a CDK3; conditions: at 1 µM
[4] = biological target: T2, cGMP-dependent protein kinase 2 (Homo sapiens) (UniProt Q13237); assay: Selectivity interaction (KinomeScan (DiscoverX)) EUB0001049a PRKG2; conditions: at 1 µM
T2 sequence (whole entry): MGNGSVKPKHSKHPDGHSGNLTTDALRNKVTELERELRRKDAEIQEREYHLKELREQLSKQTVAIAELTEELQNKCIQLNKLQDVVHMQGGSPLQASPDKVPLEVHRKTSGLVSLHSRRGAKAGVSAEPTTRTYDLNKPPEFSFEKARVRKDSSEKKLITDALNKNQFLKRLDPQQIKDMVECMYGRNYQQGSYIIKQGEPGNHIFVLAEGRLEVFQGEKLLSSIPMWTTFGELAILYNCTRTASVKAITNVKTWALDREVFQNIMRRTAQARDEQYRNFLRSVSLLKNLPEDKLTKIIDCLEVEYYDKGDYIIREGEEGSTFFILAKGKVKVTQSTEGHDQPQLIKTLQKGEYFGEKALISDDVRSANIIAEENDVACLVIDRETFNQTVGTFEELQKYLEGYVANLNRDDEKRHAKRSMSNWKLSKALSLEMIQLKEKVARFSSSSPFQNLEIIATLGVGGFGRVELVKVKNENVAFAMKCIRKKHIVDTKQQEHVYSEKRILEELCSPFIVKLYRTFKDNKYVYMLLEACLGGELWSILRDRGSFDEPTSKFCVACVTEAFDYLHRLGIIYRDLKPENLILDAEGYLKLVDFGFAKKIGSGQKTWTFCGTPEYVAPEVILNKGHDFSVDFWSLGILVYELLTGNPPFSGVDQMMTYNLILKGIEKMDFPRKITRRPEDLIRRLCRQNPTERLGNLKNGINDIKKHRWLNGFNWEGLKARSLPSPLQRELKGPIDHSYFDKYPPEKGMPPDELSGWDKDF

[5] = biological target: Mitogen-activated protein kinase kinase kinase kinase 1 (Homo sapiens) (UniProt Q92918); assay: Selectivity interaction (Ambit KINOMEscan and KiNATiv profiling in Jurkat cells) EUB0000090b MAP4K1; assay type: cell-based; conditions: at 1 µM
[6] = biological target: Serine/threonine-protein kinase PAK 6 (Homo sapiens) (UniProt Q9NQU5); assay: Selectivity interaction (Ambit KINOMEscan and KiNATiv profiling in Jurkat cells) EUB0000090b PAK6; assay type: cell-based; conditions: at 1 µM
[7] = biological target: T3, Inhibitor of nuclear factor kappa-B kinase subunit epsilon (Homo sapiens) (UniProt Q14164); assay: Selectivity interaction (ActivX KiNativ screen (ex vivo kinase selectivity in human PBMCs)) EUB0001619a IKBKE; assay type: cell-based; conditions: PBMC, at 1 µM
T3 sequence (whole entry): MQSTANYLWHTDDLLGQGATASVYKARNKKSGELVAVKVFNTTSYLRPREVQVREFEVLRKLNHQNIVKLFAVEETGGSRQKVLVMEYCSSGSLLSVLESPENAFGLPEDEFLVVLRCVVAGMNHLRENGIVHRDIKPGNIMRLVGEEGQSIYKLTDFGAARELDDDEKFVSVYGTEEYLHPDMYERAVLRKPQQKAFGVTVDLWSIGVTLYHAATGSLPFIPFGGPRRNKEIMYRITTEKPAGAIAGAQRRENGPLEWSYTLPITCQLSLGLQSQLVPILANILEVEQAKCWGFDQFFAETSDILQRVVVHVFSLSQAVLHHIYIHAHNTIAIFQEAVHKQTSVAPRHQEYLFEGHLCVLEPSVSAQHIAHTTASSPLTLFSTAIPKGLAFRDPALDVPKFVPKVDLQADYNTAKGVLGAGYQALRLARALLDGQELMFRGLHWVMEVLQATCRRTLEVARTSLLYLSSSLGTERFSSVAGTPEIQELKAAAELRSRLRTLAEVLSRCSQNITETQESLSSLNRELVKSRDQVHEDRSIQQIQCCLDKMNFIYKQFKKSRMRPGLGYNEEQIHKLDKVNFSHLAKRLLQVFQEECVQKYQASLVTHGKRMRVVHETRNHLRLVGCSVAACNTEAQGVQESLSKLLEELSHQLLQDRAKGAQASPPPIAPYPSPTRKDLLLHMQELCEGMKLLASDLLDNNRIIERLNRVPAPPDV

Chain of Mitogen-activated protein kinase kinase kinase kinase 1 (Homo sapiens) (Q92918 whole entry, looked up): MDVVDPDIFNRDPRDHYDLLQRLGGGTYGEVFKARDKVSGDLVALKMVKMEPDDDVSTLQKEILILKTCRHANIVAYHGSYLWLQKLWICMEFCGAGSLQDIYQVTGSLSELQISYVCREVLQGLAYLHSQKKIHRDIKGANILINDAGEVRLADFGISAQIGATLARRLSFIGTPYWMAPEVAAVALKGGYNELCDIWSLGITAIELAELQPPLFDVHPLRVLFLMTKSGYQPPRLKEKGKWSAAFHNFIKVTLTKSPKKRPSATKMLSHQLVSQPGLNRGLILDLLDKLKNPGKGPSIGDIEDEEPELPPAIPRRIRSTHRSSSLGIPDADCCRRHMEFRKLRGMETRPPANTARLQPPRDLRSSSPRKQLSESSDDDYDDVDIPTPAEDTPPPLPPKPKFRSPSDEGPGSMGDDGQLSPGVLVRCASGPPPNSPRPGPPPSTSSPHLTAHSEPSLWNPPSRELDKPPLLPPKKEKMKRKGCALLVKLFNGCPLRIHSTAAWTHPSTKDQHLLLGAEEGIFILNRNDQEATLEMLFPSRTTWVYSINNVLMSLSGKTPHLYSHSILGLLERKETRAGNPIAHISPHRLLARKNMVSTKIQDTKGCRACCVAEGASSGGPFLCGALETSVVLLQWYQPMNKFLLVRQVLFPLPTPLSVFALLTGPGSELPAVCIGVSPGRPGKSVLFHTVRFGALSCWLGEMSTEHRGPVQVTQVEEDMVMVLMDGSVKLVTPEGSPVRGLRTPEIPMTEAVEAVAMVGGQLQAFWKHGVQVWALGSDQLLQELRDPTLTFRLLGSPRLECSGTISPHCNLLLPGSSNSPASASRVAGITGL
Chain of Protein arginine N-methyltransferase 8 (Q9NR22 whole entry): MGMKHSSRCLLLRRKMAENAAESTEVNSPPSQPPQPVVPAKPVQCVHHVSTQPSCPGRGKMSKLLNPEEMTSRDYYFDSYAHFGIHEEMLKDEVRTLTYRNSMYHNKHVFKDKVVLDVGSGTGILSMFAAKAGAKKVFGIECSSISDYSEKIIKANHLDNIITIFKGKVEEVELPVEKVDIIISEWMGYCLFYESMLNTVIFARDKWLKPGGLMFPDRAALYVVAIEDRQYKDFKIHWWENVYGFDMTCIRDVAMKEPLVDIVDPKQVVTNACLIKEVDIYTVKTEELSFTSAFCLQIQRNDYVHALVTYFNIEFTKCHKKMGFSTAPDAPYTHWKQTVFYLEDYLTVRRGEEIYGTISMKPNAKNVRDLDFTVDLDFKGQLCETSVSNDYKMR
Chain of Cyclin-dependent kinase 3 (Homo sapiens) (Q00526 whole entry, looked up): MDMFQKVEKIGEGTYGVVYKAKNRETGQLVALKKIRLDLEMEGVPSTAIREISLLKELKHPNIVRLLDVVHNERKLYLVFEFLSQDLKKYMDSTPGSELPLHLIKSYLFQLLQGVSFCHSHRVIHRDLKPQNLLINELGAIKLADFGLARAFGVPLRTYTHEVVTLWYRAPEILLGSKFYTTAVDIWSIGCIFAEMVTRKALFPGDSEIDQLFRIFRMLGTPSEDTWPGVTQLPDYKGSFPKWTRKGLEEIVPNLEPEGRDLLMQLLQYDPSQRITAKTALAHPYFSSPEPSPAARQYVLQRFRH
Chain of Serine/threonine-protein kinase PAK 6 (Homo sapiens) (Q9NQU5 whole entry, looked up): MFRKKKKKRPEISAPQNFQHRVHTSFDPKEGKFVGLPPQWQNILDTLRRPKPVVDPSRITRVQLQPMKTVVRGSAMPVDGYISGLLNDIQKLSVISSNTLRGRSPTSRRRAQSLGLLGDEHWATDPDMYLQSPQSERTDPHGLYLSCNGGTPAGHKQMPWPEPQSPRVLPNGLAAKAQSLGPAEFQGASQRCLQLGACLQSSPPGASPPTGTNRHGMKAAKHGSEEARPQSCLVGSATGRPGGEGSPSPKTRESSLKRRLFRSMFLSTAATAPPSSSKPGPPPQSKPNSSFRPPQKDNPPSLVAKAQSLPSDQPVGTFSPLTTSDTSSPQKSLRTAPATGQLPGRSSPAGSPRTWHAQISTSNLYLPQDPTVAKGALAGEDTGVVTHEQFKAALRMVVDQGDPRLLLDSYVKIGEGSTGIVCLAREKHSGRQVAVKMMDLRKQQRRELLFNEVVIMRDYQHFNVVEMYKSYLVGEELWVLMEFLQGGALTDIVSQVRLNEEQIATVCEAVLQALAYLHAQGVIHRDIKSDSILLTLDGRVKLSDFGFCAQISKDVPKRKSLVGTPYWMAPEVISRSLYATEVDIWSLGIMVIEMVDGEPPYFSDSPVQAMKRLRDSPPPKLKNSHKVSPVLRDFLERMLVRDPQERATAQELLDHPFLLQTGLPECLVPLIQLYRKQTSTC

## COCCN1CCC(c2cc(CN(C)C(=O)c3cccc(Oc4ccccc4)c3)ccn2)CC1
[1]
  IC50: > 10 µM

## CC[C@@H]1[C@H](F)C(=O)N[C@@H]1COc1nccc2cc(C(N)=O)c(OC)cc12 [ZIMLOVISERTIB]
[2]
  % of inhibition: 5.87%

## COc1cc(Nc2nc(C)cc(-c3cnn4nc(OC)ccc34)n2)cc(C(F)(F)F)c1
[3]
  % of control: 90%
[4]
  % of control: 70%

## CN(C)C/C=C/C(=O)Nc1ccc(C(=O)N2CCCC(Nc3ncc(Cl)c(-c4c[nH]c5ccccc45)n3)C2)cc1 (configuration not stated)
[5]
  % of control: 80%
[6]
  % of control: 33%

## N#Cc1cccc(-c2c[nH]c3ncnc(N4CCOCC4)c23)c1
[7]
  % of inhibition: 19%
